From patent US5106762A, “Ligand-label conjugates which contain polyoxoanions of sulfur or phosphorus” (Georgetown University, priority 1990, dated 1992)

How the values were obtained:
[1] = tested on: immobilized monoclonal anti-DNP antibody #51; assay: Displacement of DNP-conjugates from immobilized monoclonal anti-DNP antibody by DNP-lysine; format: binding, murine; conditions: for Displacement of Antibody-Bound DNP-Conjugate by DNP-Lysine: ± S.D., free DNP-lysine to antibody-bound conjugate 2.0 (DNP-Lys-Fl) or 3.4 (DNP-Ins-Fl, DNP-Ins) mole/mole
Procedure: (§1) Specific binding of the DNP-conjugates was determined with the murine monoclonal anti-DNP antibody #51 (Stanley et al, J. Immunol. Methods, vol. 64, pp. 119-132 (1983) and Steward et al, J. Immunol. Methods, vol. 78, pp. 173-190 (1985)) coupled to tresyl chloride-activated Sepharose 4B (anti-DNP-Sepharose) The monoclonal IgG1 antibody #51 (purified from ascites) was kindly provided by Dr. M. W. Steward (Dept. of Medical Microbiology, London School of Hygiene and Tropical Medicine, London, U.K.). Nonspecific binding was measured with Sepharose 4B-immobilized non-immune mouse IgG purified from mouse serum (Jackson ImmunoResearch Laboratories, West Grove, PA) (IgG-Sepharose). After removal of buffer by vacuum filtration on a scintered glass funnel, 50 mg aliquots of Sepharose 4B-antibody matrices were transferred to plastic conical vials and incubated with ^125 I-labeled DNP-insulin A-chain-fluorescein conjugate (1.6×10^6 cpm/nmole), or ^125 I-labeled DNP-insulin A-chain conjugate without attached fluorescein residues (3.3×10^6 cpm/nmole), or non-radiolabeled DNP-Lys-Fl at a 3 to 1 molar ratio of DNP-derivative to immobilized IgG in 10 mM phosphate/150 mM NaCl, pH 7.6, overnight at 4° C. on a rocking platform. Unbound conjugate was recovered by poking a hole in the bottom of the plastic vial with a 30 gauge needle, loading the vial on the top of a glass test tube, and centrifuging. Subsequent washing steps were performed with 150 μl of 10 mM phosphate/150 mM NaCl/0.1% (v/v) Triton X-100, pH 7.6. Aliquots of the solutions collected in the bottom of the test tubes after centrifugation were assayed for radioactivity or fluorescence.
Aliquots of anti-DNP-Sepharose (50 mg) were incubated with ^125 I-labeled DNP-insulin A-chain, or ^125 I-labeled DNP-insulin A-chain-fluorescein, or DNP-lysine-fluorescein and washed with 10 mM phosphate/150 mM NaCl/0.1% (v/v) Triton X-100, pH 7.6 , as described above in Specific and Nonspecific Binding of DNP-Conjugates. […] Displacement was determined by assaying aliquots of the solutions collected in the bottom of the test tubes after centrifugation for radioactivity or fluorescence.

non-immune mouse IgG = assay: Nonspecific binding of DNP-conjugates to IgG-Sepharose; conditions: for DNP-Conjugate Bound / Ratio of Bound DNP-Conjugate to Immobilized IgG: binding to non-immune IgG; for DNP-Conjugate Bound: applied conjugate to immobilized IgG 3.0 moles/moles; for Ratio of Bound DNP-Conjugate to Immobilized IgG: applied ratio 3.0
Procedure: (§2) Fluorescence intensity was measured on a SLM 8000 fluorimeter at 490 nm excitation and 519 nm emission. Individual fluorescence standard curves with known concentrations of the different DNP-fluorescein conjugates were used to calculate the amounts of DNP-conjugates from fluorescence units. Antibodies were coupled to tresyl chloride-activated Sepharose 4B (Sigma) at a concentration of 200 ug antibody/100 mg gel according to the manufacturer's recommendation. The amount of immobilized antibody was determined using a Coomassie blue assay as described in Ahmad et al, Anal. Biochem., vol. 148, pp 533-541 (1985). Peptide and protein determinations in fluid-phase were performed by UV absorbance at 280 nm, by the bicinchoninic acid method (Smith et al, Anal. Biochem., vol. 150, pp. 76-85 (1985)) using the Pierce BCA Protein Assay Reagent (Pierce), and by the Folin-Ciocalteau method (Lowry et al, J. Biol. chem., vol. 193, pp. 265 (1951)). The A-chain of bovine insulin (oxidized to the S-sulfonate form) (Sigma), the DNP-Ins conjugate, and the DNP-Ins-Flu conjugate were radiolabeled with Na^125 I (Amersham, Arlington Heights, IL) using immobilized chloramine-T (Iodo-Beads; Pierce, Rockford, IL) (Petrella et al, J. Immunol. Methods, vol. 104, pp. 159-172 (1987)).
as §1

[2] = Determination of fluorescence lifetime (variable frequency phase fluorimeter); format: physicochemical
Procedure: The fluorescence lifetime of the DNP-fluorescein conjugates was measured on an ISS Greg-200 variable frequency phase fluorimeter as described previously (Lakowicz et al, Biophys. J., vol. 46, pp. 463-477 (1984) and Gratton et al, Biophys. J., vol. 46, pp. 479-486 (1984)) using 1-chloro-bis-(phenylethynyl)anthracene (Aldrich) in ethanol (3.791 ns) as a reference (Thompson et al. Anal. Chem., vol. 60, pp. 670-674 (1988)). The resulting phase and modulation data for DNP-Ins-FL were fit to one, two, and three emissive components using a Simplex algorithm supplied by ISS. […] When the data were fit to a three component model, the third component was weak (<5%), poorly defined (1.1±3.2 ns), and gave no improvement in X^2. Therefore, a third component appears to be unnecessary to fit the data. Since the DNP moiety has the ability to quench the fluorescein emission, the data are best explained by two fluorescein residues being remote from and unquenched by the DNP group with the third fluorescein residue being closer and subject to quenching. In accord with this explanation is the observation that the fluorescence of the DNP-lysine-fluorescein derivative was substantially quenched as shown by its reduced quantum efficiency and subanosecond fluorescence lifetime.

[3] = tested on: murine monoclonal anti-DNP antibody #51; assay: Binding of DNP-conjugates to anti-DNP-Sepharose; conditions: for binding to anti-DNP-Sepharose after extensive washing (FIG. 3): 3:1 molar ratio of conjugate to immobilized antibody; for amount specifically bound to the antigen binding sites of immobilized antibody #51: after subtraction of non-specific binding to non-immune IgG-Sepharose; for DNP-Conjugate Bound / Ratio of Bound DNP-Conjugate to Immobilized IgG: binding to anti-DNP IgG1; for DNP-Conjugate Bound: applied conjugate to immobilized IgG 3.0 moles/moles, insulin conjugates 125I-labeled; for Ratio of Bound DNP-Conjugate to Immobilized IgG: applied ratio 3.0
Procedure: as §2, §1

Compound | Displacement of Antibody-Bound DNP-Conjugate by DNP-Lysine [1] [pmol] | non-specific binding of DNP-Lys-Fl to immobilized non-immune IgG relative to DNP-Ins-Fl (non-immune mouse IgG) | DNP-Conjugate Bound (non-immune mouse IgG) [nmol] | Ratio of Bound DNP-Conjugate to Immobilized IgG (non-immune mouse IgG) [moles/moles] | fluorescence lifetime ([2]; in words) | binding to anti-DNP-Sepharose after extensive washing (FIG. 3) [3] [%] | fold difference in binding of DNP-Lys-Fl versus DNP-Ins-Fl to anti-DNP-Sepharose ([3]; 3:1 molar ratio, after extensive washing) [fold] | amount specifically bound to the antigen binding sites of immobilized antibody #51 [3] | DNP-Conjugate Bound [3] [nmol] | Ratio of Bound DNP-Conjugate to Immobilized IgG [3] [moles/moles] | efficiency of displacement by DNP-lysine relative to DNP-Ins [1] | efficiency of displacement by DNP-lysine relative to DNP-Lys-Fl ([1]; under comparable conditions) | non-specific binding of DNP-Ins-Fl relative to DNP-Lys-Fl (non-immune mouse IgG; see Table II) | fluorescence lifetime, shorter lifetime component ([2]; two component fit) [ns] | fraction of first lifetime component ([2]; two component fit) [%] | fraction of shorter lifetime component ([2]; two component fit) [%] | fluorescence lifetime, first component ([2]; two component fit, X^2 =1.26) [ns]
O=C(O)c1cc(NC(=S)N[C@@H](CCCCNc2ccc([N+](=O)[O-])cc2[N+](=O)[O-])C(=O)O)ccc1-c1c2ccc(=O)cc-2oc2cc(O)ccc12 [DNP-Lys-Fl, DNP-lysine-fluorescein, reference compound] | 0.45 ± 0.14 | three-fold higher | 1.27 ± 0.07 | 1.5 | subanosecond | 62.7 | 1.6 | 0.4 mole conjugate/mole antibody | 0.37 ± 0.02 | 1.9 |  |  |  |  |  |  | 
DNP-insulin A-chain-fluorescein [DNP-Ins-Fl] | 3.20 ± 0.70 |  | 0.44 ± 0.16 | 0.5 |  | 38.8 |  | 0.7 mole conjugate/mole antibody | 0.11 ± 0.03 | 1.2 | two-fold more efficient | much more efficient | about one-third | 2.068±0.150 | 64±7 | 36 | 4.091±0.177
dinitrophenyl-insulin A-chain [DNP-Ins] | 1.56 ± 0.01 |  |  |  |  |  |  |  | 0.11 ± 0.01 | 1.2 |  |  |  |  |  |  | 
